“Also recorded” adds a separate entry of the source.
Key:
Cyp26a1 = assay: RT-PCR of Cyp26a1 in RA-treated WT and RARβ KO ES cells; format: cell-based, mouse
Description: (§1) Mouse J1 wild-type FS cells were cultured as described previously (27). C57BL/6 RARβ heterozygous mice were provided by Dr. Pierre Chambon (Strasbourg-Cedex, France) (26). Homozygous RARβ-null mice were obtained following mating of RARβ heterozygous mice. Blastocysts were harvested on day E3.5 and individually cultured on ES cell medium as previously described (28). Various markers for endodermal (day 5), pancreatic progenitor (day 11), endocrine progenitor (day 14) and endocrine (day 17) differentiation were analyzed by semi-quantitative RT-PCR in J1 wild-type and RARβ KO ESCs. Primers were designed around introns whenever possible. Total RNA extraction, semi-quantitative and quantitative PCR reactions were performed as previously described (18). Amplified PCR products were resolved on 1.5% agarose gels and visualized by staining with ethidium bromide. PCR bands were sequenced for verification of the correct amplicon. Quantitation of semi-quantitative gels was performed using ImageJ software (National Institutes of Health) from three experimental biological repeats.

RARβ = assay: RT-PCR of RARβ in RA-treated ES cells; format: cell-based, mouse; settings: WT ES cells, presence of RA vs untreated
Description: as §1

renal lipid accumulation = assay: Hematoxylin and eosin staining of kidney sections; format: in vivo; settings: HF diet mice + AC261066 or CD1530; vs HF-vehicle
Description: (§2) WT male C57/BL6 male mice were maintained on either a standard laboratory chow-fed diet (CFD) with 13% kcal fat, (diet #5053, Lab Diet, Inc, St. Louis, Mo.) or a high fat, western style diet (HFD) with 60% kcals from fat, (diet #58126, Lab Diet, Inc., St. Louis, Mo.) for 4 months. One month after the start of the high fat diet treatment, the high fat diet group was further split into 2 groups for 3 months: i) high fat diet and the drinking water containing 1% DMSO; ii) high fat diet and the drinking water containing 1.5 mg/100 ml AC261066, a specific RARβ agonist. Then mice were sacrificed by cervical dislocation. Blood and various tissue samples were harvested.
At sacrifice, fresh mouse liver samples were fixed in 4% formaldehyde solution for 24 hr and embedded in paraffin blocks. Kidney paraffin sections were cut 5 microns thick and mounted on glass slides and stained with hematoxylin and eosin (H and E) using standard protocols.

α-SMA = α-SMA immunofluorescence of liver sections (hepatic stellate cell activation); format: in vivo; settings: HF diet mice + AC261066 or CD1530; vs HF-vehicle
Description: as §2
Staining. Fresh mouse liver samples were embedded in optimal cutting temperature (OCT) medium and immediately frozen to −70 centigrade. Cryosections were then fixed in 4% formaldehyde for 1 hr at room temp. Slides were then rinsed three times in deionized water (dH2O) for 30 s, followed by treatment with 0.5% Triton X-100 in PBS for 5 min. Sections were then washed three times with PBS for 5 min. Samples were with incubated 2% bovine serum albumin (BSA) for 30 min at room temperature to block for unspecific antibody binding. Following blocking, sections were washed three times in PBS and incubated with mouse monoclonal antibody against α-SMA (1:500) (Dako, Inc) for 24 h at 4° C. After 24 h sections were washed three times in PB and incubated with Alexa-Flour-488 anti-mouse secondary anti-body (1:500) (Invitrogen, Inc) for 30 min at room temperature. Sections were then washed three times in PBS and incubated with working strength oil-red O solution for 30 minutes at room temperature. Sections were then rinsed for 30 minutes under running tap water and cover-slipped with Vectashield hard mount plus DAPI (Vector Labs, Inc).

TNF-α = assay: Semi-quantitative PCR liver, TNF-α; format: in vivo; settings: HF diet mice + AC261066 or CD1530
Description: as §2
(§3) Total RNA was extracted from mouse tissues using TRIzol reagent (Life technologies) and (1 μg) was used to synthesize cDNA. cDNA synthesis was performed at 42° C. for 1 h in a final volume of 20 μl using qScript (Quanta, MD). Semi-quantitative PCR were performed Taq DNA polymerase (Invitrogen, CA). Three step PCR was run as follows: 94° C. for 30 s, 58-64° C. for 45 s for primer annealing and 72° C. for 1 min for primer extension. The number of cycles for each primer pair for amplification in the linear range was determined experimentally. PCR products were resolved 2% agarose gels and visualized by staining with ehtidium bromide. Primers for gene expression used were as follows: […]

[1] = system: retinyl palmitate and retinol; assay: HPLC analysis of liver retinoids; format: in vivo, mice
Description: as §2
The frozen liver tissue samples (˜100 mg) were homogenized in 500 μl cold phosphate-buffered saline (PBS). In addition, 100 μl serum was diluted in cold PBS to total volume of 500 μl. Retinyl acetate was added to each sample before the retinoid extraction for the calculation of extraction efficiency. The retinoids were extracted into 350 μl of organic solution (acetonitrile/butanol, 50:50, v/v) in the dark. The high performance liquid chromatography (HPLC) was performed using a Waters Millennium system (Waters). Each sample (100 μl of the 350 μl) was loaded onto an analytical 5-μm reverse phase C18 column (Vydac, Hesperia, Calif.) and eluted at a flow rate of 1.5 ml/min. Two mobile phase gradient systems were used. Retinoids were identified by HPLC based on two criteria: an exact match of the retention times of unknown peaks with those of authentic retinoid standards and identical UV light spectra (220-400 nm) of unknowns against spectra from authentic retinoid standards during HPLC by the use of a photodiode array detector. The amounts of retinoids were calculated from the areas under the peaks detected at the wave-length of 325 nm. The levels of retinol and retinyl esters were normalized to the tissue weight.

MCP-1 = assay: Semi-quantitative PCR liver, MCP-1; format: in vivo; settings: HF diet mice + AC261066 or CD1530
Description: as §2, §3

SREBP1-c = assay: Semi-quantitative PCR liver, SREBP1-c; format: in vivo; settings: HF diet mice + AC261066 or CD1530
Description: as §2, §3

[2] = system: hepatocyte lipid accumulation; assay: Hematoxylin and eosin staining of liver sections (hepatic steatosis); format: in vivo; settings: HF diet mice 4 months + AC261066 or CD1530; vs HF-vehicle
Description: as §2
At sacrifice, fresh mouse liver samples were fixed in 4% formaldehyde solution for 24 hr and embedded in paraffin blocks. Liver paraffin sections were cut 5 microns thick and mounted on glass slides and stained with hematoxylin and eosin (H and E) using standard protocols.

hepatic lipids = assay: Oil red O staining of liver sections; format: in vivo; settings: HF diet mice + AC261066 or CD1530; vs HF-vehicle
Description: as §2
Staining. Fresh mouse liver samples were embedded in optimal cutting temperature (OCT) medium and immediately frozen to −70 centigrade. Cryosections were then fixed in 4% formaldehyde for 1 hr at room temp. Slides were then rinsed three times in deionized water (dH2O) for 30 s, followed by treatment with 0.5% Triton X-100 in PBS for 5 min. Sections were then washed three times with PBS for 5 min. Samples were with incubated 2% bovine serum albumin (BSA) for 30 min at room temperature to block for unspecific antibody binding. Following blocking, sections were washed three times in PBS and incubated with mouse monoclonal antibody against α-SMA (1:500) (Dako, Inc) for 24 h at 4° C. […]

[3] = HF diet mice + AC261066 or CD1530 vs controls

Row | Structure (SMILES) | Cyp26a1 expression (Cyp26a1) | RARβ transcript signal (RARβ) | renal lipid infiltration/accumulation (H and E) (renal lipid accumulation) | α-SMA positive staining in liver (HSC activation) (α-SMA) | mRNA levels of TNF-α in liver (TNF-α) | liver retinol compared to controls [1, 3] | liver retinyl palmitate compared to controls [1, 3] | retinyl palmitate levels in the liver lower than HF-vehicle treated mice ([1]; HF diet mice + CD1530) [%] | mRNA levels of MCP-1 in liver (MCP-1) | mRNA levels of SREBP1-c in liver (SREBP1-c) | hepatocyte lipid infiltration / hepatic steatosis (H and E) [2] | hepatic lipid accumulation (oil red O) (hepatic lipids)
1 | CC1=C(/C=C/C(C)=C/C=C/C(C)=C/C(=O)O)C(C)(C)CCC1 [RA, all trans-retinoic acid] | RA-dependent Cyp26a1 expression was observed in both WT and RARβ KO ES cells | stronger RARβ signal |  |  |  |  |  |  |  |  |  | 
2 | O=C(O)c1ccc(-c2ccc3cc(O)c(C45CC6CC(CC(C6)C4)C5)cc3c2)cc1 [CD1530] |  |  | no decrease in renal lipid accumulation | no evidence decreased lipid accumulation or α-SMA expression intensity or patterns | markedly elevated | significantly lowered | significantly lowered | ~48 | markedly elevated | markedly higher | no decrease in hepatic lipid accumulation | not observed; also recorded: no evidence decreased lipid accumulation

From patent publication US11207277B2, “Methods of treating diseases associated with high-fat diet and vitamin a deficiency using retinoic acid receptor agonists” (Cornell University, priority 2013, dated 2021)
